Measurements published in patent US20250009734A1, “METHODS OF INHIBITING FOXO1 FOR TREATMENT OF LYMPHATIC DISORDERS” (UNIVERSITY OF SOUTH FLORIDA, priority 2023, published 2025).

Tests used:
[1] = test system: Foxc2^+/CreERT2 mice; assay: Whole-mount immunostaining of mesenteric collecting lymphatic vessels after injection; format: in vivo, mouse
Description: FIG. 4. AS1842856 injection promotes b-catenin nuclear localization in vivo. Panels A-P′ show whole-mount immunostaining of P10 mesenteric collecting lymphatic vessels from wildtype and Foxc2^+/CreERT2 pups with vehicle control (DMSO) or AS1842856 injection. Prox1 in green, Ctnnb1 in purple, and VE-cadherin in gray. A′-P′ are the higher magnification images of the white box areas in A-P. Scale bars are 100 μm.
Foxc2 is a chief regulator of lymphatic valve development modulating the expression of many valve genes (Sabine et al., 2015). While Foxc2 null animals are embryonic lethal, the Foxc2 heterozygous mice are a model of the human disease lymphedema-distichiasis with severe lymphatic valve loss (Kriederman et al., 2003, Petrova et al., 2004). To test whether AS1842856 treatment increases valve growth in vivo, the inventors intraperitoneally (i.p.) injected AS1842856 into Foxc2^+/CreERT2 pups. […] Since the open reading frame in one allele of the Foxc2 gene is replaced with the cDNA for CreERT2, the Foxc2^+/CreERT2 mice is heterozygous for Foxc2 gene (Geng et al., 2016). […] To compare the number of valves from these 4 groups, the inventors counted total number of valves from 6 branches (from the lymph nodes to the gut wall) in the mesentery and measured the total length of these branches as previously published (Scallan et al., 2021). […]

[2] = biological target: FOXO3 (Homo sapiens, UniProt O43524); conditions: Nagashima et al., 2010; cited from earlier work
[3] = test system: Foxc2^+/CreERT2 mice; assay: Mesenteric lymphatic valve counting after i.p. injection in pups; format: in vivo, mouse
Description: FIGS. 3A-3F. AS1842856 treatment in vivo increases valve number in Foxc2^+/CreERT2 mice. (A) Schematic illustration of AS1842856 injection procedure in postnatal day (P) 7-21 pups. (B-E) Fluorescent images showing the morphology of mesenteric collecting lymphatic vessels at P21. Mesenteries are from Prox1-GFP with DMSO (vehicle control) injection (B); Prox1-GFP with AS1842856 injection (C); Foxc2^+/CreERT2; Prox1-GFP with DMSO injection (D); Foxc2^+/CreERT2; Prox1-GFP with AS1842856 injection (E). (F) Quantification of valves per millimeter at P21 from 4 groups of mice. 4 mice are used for the analysis. All values are mean±SEM. Two-way ANOVA was performed with Turkey's multiple comparisons. ns=not significant, *p≤0.05, ***p<0.001. Scale bar is 1000 μm.
Foxc2 is a chief regulator of lymphatic valve development modulating the expression of many valve genes (Sabine et al., 2015). While Foxc2 null animals are embryonic lethal, the Foxc2 heterozygous mice are a model of the human disease lymphedema-distichiasis with severe lymphatic valve loss (Kriederman et al., 2003, Petrova et al., 2004). To test whether AS1842856 treatment increases valve growth in vivo, the inventors intraperitoneally (i.p.) injected AS1842856 into Foxc2^+/CreERT2 pups. Instead of using wildtype pups as control, Prox1-GFP mice were used as control as well as for visualizing the lymphatic vasculature (Choi et al., 2011). The Foxc2^+/CreERT2 pups were also bred to carry the Prox1-GFP allele. Since the open reading frame in one allele of the Foxc2 gene is replaced with the cDNA for CreERT2, the Foxc2^+/CreERT2 mice is heterozygous for Foxc2 gene (Geng et al., 2016). […] To compare the number of valves from these 4 groups, the inventors counted total number of valves from 6 branches (from the lymph nodes to the gut wall) in the mesentery and measured the total length of these branches as previously published (Scallan et al., 2021). […]
TM administered postnatal pups were euthanized using an IACUC approved method and the colleting lymphatics were analyzed at the experimental timepoints. […]

[4] = biological target: FOXO1 (Homo sapiens, UniProt Q12778); conditions: binds to FOXO1 protein, prevents binding to promoter regions; Nagashima et al., 2010; cited from earlier work
Chain of FOXO1 (Q12778 whole entry, species assumed): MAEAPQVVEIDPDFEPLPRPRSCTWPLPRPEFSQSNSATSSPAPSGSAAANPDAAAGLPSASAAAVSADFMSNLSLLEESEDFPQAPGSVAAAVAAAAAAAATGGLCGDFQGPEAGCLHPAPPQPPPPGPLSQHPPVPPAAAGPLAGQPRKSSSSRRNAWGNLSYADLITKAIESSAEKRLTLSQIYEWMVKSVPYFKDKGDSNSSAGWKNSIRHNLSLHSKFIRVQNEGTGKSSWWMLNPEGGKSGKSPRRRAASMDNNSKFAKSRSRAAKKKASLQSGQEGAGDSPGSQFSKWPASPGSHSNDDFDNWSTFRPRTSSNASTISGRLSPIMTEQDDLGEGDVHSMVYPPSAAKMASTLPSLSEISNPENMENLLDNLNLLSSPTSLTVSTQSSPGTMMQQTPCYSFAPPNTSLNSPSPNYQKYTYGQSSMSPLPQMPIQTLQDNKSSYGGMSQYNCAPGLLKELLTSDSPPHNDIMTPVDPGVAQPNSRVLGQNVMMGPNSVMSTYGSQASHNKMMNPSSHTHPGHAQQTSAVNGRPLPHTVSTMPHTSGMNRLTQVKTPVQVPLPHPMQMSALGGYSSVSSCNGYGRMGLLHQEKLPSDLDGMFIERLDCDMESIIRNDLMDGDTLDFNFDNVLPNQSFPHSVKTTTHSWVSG

Chain of FOXO3 (O43524 whole entry, species assumed): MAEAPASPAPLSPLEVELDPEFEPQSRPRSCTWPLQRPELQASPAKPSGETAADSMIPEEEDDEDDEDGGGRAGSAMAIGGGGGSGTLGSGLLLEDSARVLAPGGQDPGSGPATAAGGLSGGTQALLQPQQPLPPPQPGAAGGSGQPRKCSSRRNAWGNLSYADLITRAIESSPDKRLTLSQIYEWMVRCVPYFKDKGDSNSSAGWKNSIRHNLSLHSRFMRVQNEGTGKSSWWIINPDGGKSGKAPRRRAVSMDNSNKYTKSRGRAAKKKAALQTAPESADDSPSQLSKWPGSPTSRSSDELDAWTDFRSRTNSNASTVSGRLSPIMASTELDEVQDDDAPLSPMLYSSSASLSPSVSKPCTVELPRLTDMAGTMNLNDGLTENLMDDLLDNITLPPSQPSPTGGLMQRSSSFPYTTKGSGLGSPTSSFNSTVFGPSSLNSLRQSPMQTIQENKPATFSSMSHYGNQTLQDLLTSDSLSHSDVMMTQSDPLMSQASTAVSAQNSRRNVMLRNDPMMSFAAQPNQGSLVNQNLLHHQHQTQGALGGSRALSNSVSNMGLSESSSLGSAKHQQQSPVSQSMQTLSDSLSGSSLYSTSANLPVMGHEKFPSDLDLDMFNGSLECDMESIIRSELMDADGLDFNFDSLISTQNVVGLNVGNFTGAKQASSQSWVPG

## CCn1cc(C(=O)O)c(=O)c2c(N)c(F)c(NC3CCCCC3)cc21 [AS1842856]
[1]; AS1842856 treated Foxc2^+/CreERT2 pups
  valves expressing Itga9 (whole-mount immunostaining): all the valves
[1]; P10 mesenteries after two injections, wildtype and Foxc2^+/CreERT2 pups, vs DMSO injected group
  nuclear localization of β-catenin in mesenteric LECs in vivo: increased nuclear purple staining from β-catenin
[2]
  effect on inhibiting the activity of FOXO3: minimal effect
[3]; Foxc2^+/CreERT2 pups with AS1842856 injection (8 mg/kg i.p. every other day P7-P21) vs Foxc2^+/CreERT2 pups with DMSO injection
  valves/mm in mesentery: significantly higher
[3]; Foxc2^+/CreERT2 pups with AS1842856 injection (8 mg/kg i.p. every other day P7-P21) vs Prox1-GFP pups with DMSO injection
  valves/mm in mesentery: still significantly lower
[3]; Prox1-GFP pups with AS1842856 injection (8 mg/kg i.p. every other day P7-P21) vs Prox1-GFP pups with DMSO injection
  valves/mm in mesentery: no significant difference
[4]
  effect on transcription activity of FOXO1 in the nucleus: reduces the transcription activity of FOXO1
